Like-named read-outs stand apart in the source and are kept apart here.

The test system of data set [1] is HER3-ss+4aa/Gaussia Luciferase. Briefly: Dox-Induced Her3-ss-Gluc Assay. The class given is cell-based. The following applies: 24 hr Dox induction, 293FRT/TO cells, read-out: 24 hr Dox Inducible Her3(ss + 4)Gluc 293FRT/TO: Mean IC50. The gist of the method:
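Stable Flp-In 293 T-REx line expressing Gaussia luciferase fused to the HER3 signal sequence plus 4 amino acids under tetracycline-regulated (T-REx) control. Cells plated the day before, then treated with compound dilutions in DMSO/media containing doxycycline and incubated at 37° C., 5% CO2.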

Data set [2] relates to TNFα-FL/Gaussia Luciferase. Briefly: Dox Induced TNFα-FL-Gluc Assay. Format: cell-based. The following applies: for IC50: 24 hr Dox induction, 293FRT/TO cells, read-out: 24 hr Dox Inducible TNFaFLGluc 293FRT/TO: Mean IC50; for 24 hr Dox Inducible TNFaFLGluc 293FRT/TO: TNF/PD1: ratio of TNFaFLGluc IC50 to PD1ssGluc IC50. In short, it runs like this: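 Flp-In 293 T-REx cells stably expressing full-length TNFα (aa 1-233) fused at its C-terminus to Gaussia luciferase under tetracycline-regulated control were plated the day before assay. Compound dilutions in DMSO/media containing doxycycline were added and incubated at 37 °C, 5% CO2. Unspecified stereochemistry denotes stereoisomer mixtures.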

Data set [3] is described as follows: Liver Microsome Stability Assay (rat). The following applies: rat liver microsomes, with NADPH, 1.0 uM compound.
Protocol: (§1) Stability of a compound was assessed in the presence of liver microsomes from various sources—mouse, rat, monkey and human liver microsomes. 1.0 uM compound, 0.4% DMSO in 0.1 M Potassium Phosphate with 1.0 mg/mL liver microsomes, were incubated at 37° C. with or without 1 mM NADPH. The samples were quenched at 0, and 30 minutes.
Data set [4] concerns IL-2-FL/Gaussia Luciferase. Kind of data set: Dox Induced IL2-FL-Gluc Assay. The following applies: for IC50: 24 hr Dox induction, 293FRT/TO cells, read-out: 24 hr Dox Inducible IL2FLGluc 293FRT/TO: Mean IC50; for 24 hr Dox Inducible IL2FLGluc 293FRT/TO: IL2/PD1: ratio of IL2FLGluc IC50 to PD1ssGluc IC50. The class given is cell-based. The gist of the method:
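Flp-In 293 T-REx cells stably carrying doxycycline-inducible full-length IL-2 (aa 1-153) fused at its C-terminus to Gaussia luciferase, selected with hygromycin and blasticidin. Cells were plated the day before, then treated with compounds in DMSO/media containing doxycycline at 37° C, 5% CO2.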

Data set [5] concerns PD1-ss+10aa/Gaussia Luciferase. Kind of data set: Dox-Induced PD1-ss-Gluc Assay. The class given is cell-based. The following applies: 24 hr Dox induction, 293FRT/TO cells, read-out: 24 hr Dox Inducible PD1ssGluc 293FRT/TO: Mean IC50. The gist of the method:
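Flp-In 293 T-REx, stable line; Tet-regulated PD1-ss+10aa fused to Gaussia luciferase; plated day prior; cpd + doxycycline in DMSO/media; 37 °C, 5% CO2.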

Data set [6] relates to multiple myeloma cell line NCI-H929. Kind of data set: H929 Cell Viability Assay. Format: cell-based, human. The following applies: Homo sapiens, NCI-H929, 48 h, NCI-H929 cells, Celltiter-Glo. The gist of the method:
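NCI-H929 cells, resuspended in RPMI 1640 with 10% FBS and 2 mM glutamine, were treated with compound dilutions in DMSO/media and incubated 48 hours at 37° C, 5% CO2. Viability was read by CellTiter-Glo luminescence. Compounds drawn without stereochemistry were tested as stereoisomer mixtures.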

Data set [7] is described as follows: Liver Microsome Stability Assay (monkey). The following applies: monkey liver microsomes, with NADPH, 1.0 uM compound.
Protocol: as §1
The nature of data set [8]: Liver Microsome Stability Assay (mouse). The following applies: mouse liver microsomes, with NADPH, 1.0 uM compound.
Protocol: as §1
Data set [9] deals with multiple myeloma cell line U266B1. Briefly: U266 Cell Viability Assay. Format: cell-based, human. The following applies: Homo sapiens, U-266, 48 h, U266B1 cells, Celltiter-Glo. In short, it runs like this: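 Cells grown in RPMI 1640 with 10% FBS, 2 mM glutamine and penicillin/streptomycin were exposed to compound dilutions in DMSO/media for 48 hours at 37° C., 5% CO2. Viability was read by CellTiter-Glo luminescence. Undefined stereocentres mean data for stereoisomer mixtures.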

Data set [10] can be described thus: Liver Microsome Stability Assay (human). The following applies: human liver microsomes, with NADPH, 1.0 uM compound.
Protocol: as §1
The mark [11] stands for this setting: '<=>' given where both are I.A.

As for `O=C(Nc1nc([C@H]2CCCN2c2ccccc2)cs1)c1cccn1Cc1ccncc1Br` [Compound E22, (R)-1-((3-bromopyridin-4-yl)methyl)-N-(4-(1-phenylpyrrolidin-2-yl)thiazol-2-yl)-1H-pyrrole-2-carboxamide], the IC50 in data set [1] (mean) stood at 216 nM; in data set [2] (mean) it was 3420 nM; in data set [4] (mean), 399 nM; in data set [5] (mean), 130 nM. The “24 hr Dox Inducible TNFaFLGluc 293FRT/TO: TNF/PD1” value in data set [2] (setting [11]) is listed as 26.4. Besides, the “Liver Microsome Stability (Multiple Species): Rat - % Remaining after 30 min w/NADPH” value in data set [3] came out at 0.79%. In data set [4] (setting [11]), the “24 hr Dox Inducible IL2FLGluc 293FRT/TO: IL2/PD1” value worked out at 3.1. Besides, the results for the EC50 in data set [6] and in data set [9] were 11900 nM and > 25000 nM, respectively. In addition, the “Liver Microsome Stability (Multiple Species): Monkey - % Remaining after 30 min w/NADPH” value in data set [7] turned out to be 0.58%. For the same compound, the “Liver Microsome Stability (Multiple Species): Mouse - % Remaining after 30 min w/NADPH” value in data set [8] is given as 1.4%. For the same compound, the “Liver Microsome Stability (Multiple Species): Human - % Remaining after 30 min w/NADPH” value in data set [10] came to 11.5%.

For the compound `NC(=O)c1cc(C(=O)Nc2nc([C@H]3CCCN3c3ccccc3)cs2)n(Cc2ccnc(F)c2)c1` [Compound A152, (R)-1-((2-fluoropyridin-4-yl)methyl)-N2-(4-(1-phenylpyrrolidin-2-yl)thiazol-2-yl)-1H-pyrrole-2,4-dicarboxamide], the IC50 in data set [1] is 2130 nM; in data set [2], > 25000 nM; in data set [4] it was 3280 nM; in data set [5] it was 2410 nM. In data set [2], the “24 hr Dox Inducible TNFaFLGluc 293FRT/TO: TNF/PD1” value is on record as >10.4. In addition, the “Liver Microsome Stability (Multiple Species): Rat - % Remaining after 30 min w/NADPH” value in data set [3] was 24.1%. Further, in data set [4], the “24 hr Dox Inducible IL2FLGluc 293FRT/TO: IL2/PD1” value came to 1.4. In addition, the EC50 was 13200 nM in data set [6] and > 25000 nM in data set [9]. The “Liver Microsome Stability (Multiple Species): Monkey - % Remaining after 30 min w/NADPH” value in data set [7] stood at 28.1%. In addition, the “Liver Microsome Stability (Multiple Species): Mouse - % Remaining after 30 min w/NADPH” value in data set [8] was 48.9%. In addition, the “Liver Microsome Stability (Multiple Species): Human - % Remaining after 30 min w/NADPH” value in data set [10] was 44.4%.

For `CC(CCC#N)n1cccc1C(=O)Nc1nc([C@H]2CCCN2c2ccccc2)cs1` (stereo partly drawn) [Compound C90, 1-(4-cyanobutan-2-yl)-N-(4-((R)-1-phenylpyrrolidin-2-yl)thiazol-2-yl)-1H-pyrrole-2-carboxamide], the IC50 in [1] (mean) is 2390 nM; in [2] (mean), 16100 nM; in [4] (mean) it was 4010 nM; in [5] (mean) it was 1650 nM. Further, the “24 hr Dox Inducible TNFaFLGluc 293FRT/TO: TNF/PD1” value in [2] (setting [11]) worked out at 9.76. In addition, the “Liver Microsome Stability (Multiple Species): Rat - % Remaining after 30 min w/NADPH” value in [3] is recorded as 7.22%. Further, in data set [4] (setting [11]), the “24 hr Dox Inducible IL2FLGluc 293FRT/TO: IL2/PD1” value is recorded as 2.4. Moreover, the EC50 in data set [6] and in [9] was > 25000 nM throughout. Moreover, the “Liver Microsome Stability (Multiple Species): Monkey - % Remaining after 30 min w/NADPH” value in data set [7] was 1.77%. For the same compound, the “Liver Microsome Stability (Multiple Species): Mouse - % Remaining after 30 min w/NADPH” value in [8] came out at 1.54%. The “Liver Microsome Stability (Multiple Species): Human - % Remaining after 30 min w/NADPH” value in [10] is reported as 1.77%.

For the compound `CN(C)CCO[C@@H]1C[C@H](c2csc(NC(=O)c3cccn3Cc3ccncc3)n2)N(c2ccccc2)C1` [Compound E31], the IC50 in [1] (mean) was 9140 nM; in data set [2] (mean), > 25000 nM; in [4] (mean), 9020 nM; in data set [5] (mean) it was 1670 nM. For the same compound, in data set [2] (setting [11]), the “24 hr Dox Inducible TNFaFLGluc 293FRT/TO: TNF/PD1” value was >15.0. In addition, in data set [3], the “Liver Microsome Stability (Multiple Species): Rat - % Remaining after 30 min w/NADPH” value is 21.2%. In data set [4] (setting [11]), the “24 hr Dox Inducible IL2FLGluc 293FRT/TO: IL2/PD1” value is 5.4. Besides, the EC50 amounted to 8900 nM in data set [6] and 7850 nM in data set [9]. Besides, the “Liver Microsome Stability (Multiple Species): Monkey - % Remaining after 30 min w/NADPH” value in data set [7] worked out at 0.25%. Further, the “Liver Microsome Stability (Multiple Species): Mouse - % Remaining after 30 min w/NADPH” value in [8] is recorded as 38.3%. Moreover, in data set [10], the “Liver Microsome Stability (Multiple Species): Human - % Remaining after 30 min w/NADPH” value is recorded as 2.06%.

With `CCOC(=O)C(C)n1cnc(/C=C/c2csc(NC(=O)c3cccn3Cc3ccnc(F)c3)n2)c1C` (stereo not drawn) [Compound B119, ethyl (E)-2-(4-(2-(2-(1-((2-fluoropyridin-4-yl)methyl)-1H-pyrrole-2-carboxamido)thiazol-4-yl)vinyl)-5-methyl-1H-imidazol-1-yl)propanoate], the IC50 in data set [1] (mean) was 8900 nM; in data set [2] (mean), 21300 nM; in [4] (mean), 10100 nM; in [5] (mean) it was 51.1 nM. Moreover, the “24 hr Dox Inducible TNFaFLGluc 293FRT/TO: TNF/PD1” value in data set [2] (setting [11]) worked out at 418. The “Liver Microsome Stability (Multiple Species): Rat - % Remaining after 30 min w/NADPH” value in data set [3] stood at 0.7%. In addition, the “24 hr Dox Inducible IL2FLGluc 293FRT/TO: IL2/PD1” value in [4] (setting [11]) stood at 200. The values for the EC50 in data set [6] and in data set [9] were 13100 nM and 15600 nM, respectively. In data set [7], the “Liver Microsome Stability (Multiple Species): Monkey - % Remaining after 30 min w/NADPH” value is reported as 0.1%. Moreover, the “Liver Microsome Stability (Multiple Species): Mouse - % Remaining after 30 min w/NADPH” value in data set [8] is 2.37%. In addition, in data set [10], the “Liver Microsome Stability (Multiple Species): Human - % Remaining after 30 min w/NADPH” value came to 0.15%.

On to `Cc1ccc(N2CCC[C@@H]2c2csc(NC(=O)c3cccn3Cc3ccncc3)n2)cc1` [Compound A21, (R)-1-(pyridin-4-ylmethyl)-N-(4-(1-(p-tolyl)pyrrolidin-2-yl)thiazol-2-yl)-1H-pyrrole-2-carboxamide], for which the IC50 was found to be 2.61 nM in [1], 27.1 nM in data set [2], 3.87 nM in data set [4] and 0.89 nM in [5]. Besides, the “24 hr Dox Inducible TNFaFLGluc 293FRT/TO: TNF/PD1” value in [2] was determined as 30.4. The “Liver Microsome Stability (Multiple Species): Rat - % Remaining after 30 min w/NADPH” value in data set [3] is listed as 11%. Besides, in data set [4], the “24 hr Dox Inducible IL2FLGluc 293FRT/TO: IL2/PD1” value is on record as 4.3. For the same compound, the EC50 in data set [6] was 54.1 nM; in [9], > 25000 nM. Also, the “Liver Microsome Stability (Multiple Species): Monkey - % Remaining after 30 min w/NADPH” value in [7] was determined as 1.43%. In data set [8], the “Liver Microsome Stability (Multiple Species): Mouse - % Remaining after 30 min w/NADPH” value is reported as 6.31%. In addition, the “Liver Microsome Stability (Multiple Species): Human - % Remaining after 30 min w/NADPH” value in data set [10] is given as 4.28%.

Regarding `O=C(Nc1nc([C@H]2CCCN2c2ccc(OC3CCOCC3)cc2)cs1)c1cccn1Cc1ccncc1` [Compound A1, (R)-1-(pyridin-4-ylmethyl)-N-(4-(1-(4-((tetrahydro-2H-pyran-4-yl)oxy)phenyl)pyrrolidin-2-yl)thiazol-2-yl)-1H-pyrrole-2-carboxamide], the IC50 in data set [1] amounted to 58.4 nM; in data set [2] it was 369 nM; in data set [4], 53.8 nM; in data set [5], 26.9 nM. The “24 hr Dox Inducible TNFaFLGluc 293FRT/TO: TNF/PD1” value in data set [2] turned out to be 13.7. In data set [3], the “Liver Microsome Stability (Multiple Species): Rat - % Remaining after 30 min w/NADPH” value worked out at 50%. In addition, the “24 hr Dox Inducible IL2FLGluc 293FRT/TO: IL2/PD1” value in data set [4] worked out at 2. Also, the results for the EC50 in [6] and in data set [9] were 1230 nM and > 25000 nM, respectively. Further, the “Liver Microsome Stability (Multiple Species): Monkey - % Remaining after 30 min w/NADPH” value in [7] is recorded as 6.47%. The “Liver Microsome Stability (Multiple Species): Mouse - % Remaining after 30 min w/NADPH” value in data set [8] is reported as 24.8%. Further, the “Liver Microsome Stability (Multiple Species): Human - % Remaining after 30 min w/NADPH” value in [10] is 14.3%.

(Values after patent US20230286973A1, “PROTEIN SECRETION INHIBITORS” (KEZAR LIFE SCIENCES, priority 2020, published 2023).)
